Assay results as given in US20050250093A1, “Hepatitis c virus sub-genomic replicons” (priority 2002, published 2005).

Columns and labels:
Huh-7 cells [1] = test: Analysis of replicon copy number by TaqMan; type: cell-based, human; conditions: real-time PCR with primers and probes in the neo gene on total RNA from replicon cells
Procedure: Next, replicon RNA was quantified by TaqMan. Real-time PCR was conducted with primers and probes in the neo gene on total RNA isolated from the replicon cells and on standard neo containing DNA. Copy numbers of the replicon were calculated based on standard curve generated from known amount of in vitro transcribed RNA. J4 M/S contained about 147 copies/cell, BB7-F1 contained 57 copies/cell, HCV 1a replicon has 165 copies/cell, BB7/H77NS5B has 29 copies/cell. For a positive control, HCV BB7 replicon that has 1500 copies/cell while Huh-7 cells served as negative controls.
Cells were trypinized and counted to determine cell number. The total cellular RNA was isolated using RNeasy Mini Kit (Qiagen) following the manufacturer's protocol. The RNA was stored at −80° C. or assayed by TaqMan quantitative RT-PCR. For analysis by TaqMan PCR, a master mix was prepared using TaqMan EZ RT-PCR Kit (Applied Biosystems #403028), TaqMan PDAR Control Reagent Human Cyclophilin (Applied Biosystems #4310883E), custom primer Neo^R fwd CCG GCT ACC TGC CCA TTC [SEQ ID NO:28] […] Data was analyzed by leaving the baseline to default level on both layers, and set a threshold to an equal value for both dye layers. […] The copy number for each replicon sample was calculated by taking the sample's Ct value, minus the line intercept, divided by the slope of the line.

Huh-7 cells [2] = test: Stable replication / G418 resistance after electroporation of replicon RNA into Huh-7 cells; type: cell-based, human; conditions: replicon RNA prepared in vitro, G418 selection
Procedure: In the present invention, certain chimeric replicon constructs were generated from pHCVrep1b(BB7) with sequences substituted with either type 1aHCV H77 sequence or by HCV type 1b J4 strain sequence. […] The methods for constructing these replicons are described herein.
RNA transcribed from the above replicon DNA was electroporated into Huh-7 cells according to the procedures in the examples. G418 resistant cells were obtained by incubating the cells in G418-containing media. Once the cells were amplified, total cellular protein was separated on SDS-PAGE and probed by NS5A serum to assess whether HCV proteins were expressed. As predicted, all three replicon cell lines expressed NS5A as shown on figure. Genomic DNA and RNA were also isolated from each replicon cell lines. PCR reactions on genomic DNA were carried out to assess the possibility that the G418 resistance was due to expression of the phosphatransferase from integrated neo resistant gene into the Huh-7 cell genome. […] Therefore, the date indicate that it is unlikely that the resistance is due to integration of residue DNA in our RNA preparation into the genome of Huh-7 cells.
Five […]g of replicon RNA was electroporated into 5×10^6 cells of the hepatoma cell line, Huh-7. […] Huh-7 cells were pelleted, washed, counted and resuspended to a final concentration of 1×10^7 cells/ml in Opti-MEM media (Invitrogen). […]

type 1a replicon system = test: Susceptibility of the type 1a replicon system to interferon and antiviral agents; type: cell-based, HCV; conditions: type 1a replicon vs type 1b replicon system

Row | Substance | replicon copy number (Huh-7 cells [1]) | generation of stable cell lines / stable replication after transfection into Huh-7 cells (Huh-7 cells [2]) | susceptibility compared with the type 1b replicon system (type 1a replicon system)
1 | HCV 1a replicon | 165 copies/cell | able to stably replicate and confer resistance to G418 | –
2 | interferon | – | – | similar
